Marks after values point to notes of the source that are not given here.

human recombinant IL-17A, sequence (Q16552 24-155): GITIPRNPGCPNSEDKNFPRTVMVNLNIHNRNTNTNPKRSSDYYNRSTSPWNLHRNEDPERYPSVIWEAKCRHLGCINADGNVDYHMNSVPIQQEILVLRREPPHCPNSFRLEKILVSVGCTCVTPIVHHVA

The target of the first experiment is human recombinant IL-17A (Homo sapiens (Human), UniProt Q16552). As to the kind of experiment: IL-17A AlphaLISA Assay (competition: block binding of IL-17A to its receptor IL-17RA). The settings on record: compounds pre-incubated with IL-17A for 30 min (indicated by *). Here is the method:
The ability of the compounds to block binding of IL-17A to its receptor, IL-17RA, was analysed in a competition assay using AlphaLISA technology (Perkin Elmer). The assay is a bead based AlphaLISA where the IL-17RA is captured on the acceptor bead via an Fc tag and IL-17A is captured on the streptavidin donor bead via a biotinylated anti-IL-17A antibody.
Assay buffer was prepared by adding 0.05% Tween-20 (v/v) and 0.1% BSA to Phosphate Buffered Saline (PBS). The assay was carried out in 384-well white low volume plates (Corning 4512). 10 μL of a 7.5 nM stock of human recombinant IL-17A (R&D Systems 7955-IL/CF) diluted in assay buffer was dispensed into the assay plate and compounds or DMSO vehicle control were added in a volume of 75 nL using a D300 dispenser (Hewlett Packard). The compounds were pre-incubated with the IL-17A for 24 h at room temperature (or for 30 min, where indicated by * in Table A below) prior to addition of 5 μL of a 5 nM stock of human recombinant IL-17RA/Fc chimera (R&D Systems 177-IR-100) diluted in assay buffer. The IL-17A was incubated with the receptor for a further 90 minutes at room temperature before addition of 5 μL of a mixture of anti-human Fc IgG acceptor beads (75 μg/mL, Perkin Elmer AL103C) and anti-IL-17A biotin conjugated antibody (5 nM, Enzo Life Sciences, ENZ-ABS278-0100) in assay buffer. After a further 30 min incubation at room temperature, 5 μL of streptavidin donor beads (75 μg/mL, Perkin Elmer 6760002S) were added and the plate was incubated for 3 h in the dark.
The luminescence signal was measured using an Enspire plate reader (Perkin Elmer) with excitation at 680 nm and emission at 615 nm. Data were analysed using GraphPad Prism and fitted to a 4-parameter logistic equation. The IC50 values were calculated using the DMSO vehicle as the negative control and a high concentration (6 μM) of a reference IL-17A inhibitor as the positive control.
Activity of the Example compounds is reported as a pIC50 value in Table A.
(In general: In Alpha technology, singlet oxygen from a donor bead excites a nearby acceptor bead.)
Consider `Cc1nsc(C)c1-c1ccc(NC(=O)[C@@H](NC(=O)c2cnnn2C)[C@H]2CC[C@H](C)CC2)nc1` [Example 116, N-((S)-2-((5-(3,5-dimethylisothiazol-4-yl)pyridin-2-yl)amino)-1-((1r,4S)-4-methylcyclohexyl)-2-oxoethyl)-1-methyl-1H-1,2,3-triazole-5-carboxamide], for which the “AlphaLISA pIC50” value was 6.0*.

As to `CCn1nccc1C(=O)N[C@H](C(=O)Nc1ccc(-c2c(C)c[n+]([O-])cc2C)cn1)[C@H]1CC[C@H](C)CC1` [Example 58, 6-((S)-2-(1-Ethyl-1H-pyrazole-5-carboxamido)-2-((1 r,4S)-4-methylcyclohexyl)acetamido)-3′,5′-dimethyl-[3,4′-bipyridine]1′-oxide], the “AlphaLISA pIC50” value is reported as 6.9*.

Turning to `Cc1cnn(C)c1-c1ccc(NC(=O)[C@@H](NC(=O)c2ccnn2C)C2CCCC2)nc1` [Example 102, (S)-N-(1-cyclopentyl-2-((5-(1,4-dimethyl-1H-pyrazol-5-yl)pyridin-2-yl)amino)-2-oxoethyl)-1-methyl-1H-pyrazole-5-carboxamide], the “AlphaLISA pIC50” value was 6.1*.

As for `Cc1cnn(C)c1-c1ncc(NC(=O)[C@@H](NC(=O)c2ccnn2C)[C@H]2CC[C@H](C)CC2)cc1F` [Example 98, N-((S)-2-((6-(1,4-dimethyl-1H-pyrazol-5-yl)-5-fluoropyridin-3-yl)amino)-1-((1 r,4S)-4-methylcyclohexyl)-2-oxoethyl)-1-methyl-1H-pyrazole-5-carboxamide], the “AlphaLISA pIC50” value is on record as 6.3*.

On to `COc1c(-c2ccc(NC(=O)[C@@H](NC(=O)c3ccnn3C)[C@H]3CC[C@H](C)CC3)nc2)ccnc1C` [Example 70, N-((S)-2-((3′-methoxy-2′-methyl-[3,4′-bipyridin]-6-yl)amino)-1-((1r,4S)-4-methylcyclohexyl)-2-oxoethyl)-1-methyl-1H-pyrazole-5-carboxamide], for which the “AlphaLISA pIC50” value is listed as 6.1*.

For `Cc1c(-c2ccc(NC(=O)[C@@H](NC(=O)c3ccnn3C)C3CCC(F)(F)CC3)cc2)ccc(=O)n1C` [Example 20, (S)-N-(1-(4,4-Difluorocyclohexyl)-2-((4-(1,2-dimethyl-6-oxo-1,6-dihydropyridin-3-yl)phenyl)amino)-2-oxoethyl)-1-methyl-1H-pyrazole-5-carboxamide], the “AlphaLISA pIC50” value is reported as 6.0*.

For the compound `CCn1nccc1C(=O)N[C@H](C(=O)Nc1cnc(-c2c(C)cnn2C)c(F)c1)[C@H]1CC[C@H](C)CC1` [Example 108, N-((S)-2-((6-(1,4-dimethyl-1H-pyrazol-5-yl)-5-fluoropyridin-3-yl)amino)-1-((1 r,4S)-4-methylcyclohexyl)-2-oxoethyl)-1-ethyl-1H-pyrazole-5-carboxamide], the “AlphaLISA pIC50” value was 6.8*.

`Cc1nnn(C)c1-c1ccc(NC(=O)[C@@H](NC(=O)c2ccnn2C)[C@H]2CC[C@H](C)CC2)nc1` [Example 44, N-((S)-2-((5-(1,4-Dimethyl-1H-1,2,3-triazol-5-yl)pyridin-2-yl)amino)-1-((1r,4S)-4-methylcyclohexyl)-2-oxoethyl)-1-methyl-1H-pyrazole-5-carboxamide]: the “AlphaLISA pIC50” value was 6.8*.

For `Cc1c(-c2ccc(NC(=O)[C@@H](NC(=O)c3ccnn3C)C3CCC(C)(C)CC3)cc2)ccc(=O)n1C` [Example 21, (S)-N-(2-((4-(1,2-Dimethyl-6-oxo-1,6-dihydropyridin-3-yl)phenyl)amino)-1-(4,4-dimethylcyclohexyl)-2-oxoethyl)-1-methyl-1H-pyrazole-5-carboxamide], the “AlphaLISA pIC50” value is recorded as 6.0*.

The same experiment, now with this note: compounds pre-incubated with IL-17A for 24 h at room temperature.
For `Cc1c(-c2ccc(NC(=O)[C@@H](NC(=O)c3ccnn3C)[C@H]3CC[C@H](C)CC3)nc2)ccc(=O)n1C` [Example 8, N-((S)-2-((1′,2′-Dimethyl-6′-oxo-1′,6′-dihydro-[3,3′-bipyridin]-6-yl)amino)-1-((1 r,4S)-4-methylcyclohexyl)-2-oxoethyl)-1-methyl-1H-pyrazole-5-carboxamide], the “AlphaLISA pIC50” value turned out to be 6.0.

Source of the values: patent US20230286943A1, “IL-17A MODULATORS” (SANOFI, priority 2020, published 2023).
